The record followed here is ChEMBL document CHEMBL4627280, “Discovery of disubstituted xylylene derivatives as small molecule direct inhibitors of Keap1-Nrf2 protein-protein interaction” (Bioorg Med Chem, 2020).

Data set [1] in a line: Metabolic stability in human liver microsomes assessed as parent compound remaining at 0.1 mM measured after 90 mins by LC/MS analysis. The data set is classed as ADME, Microsome. The conditions noted are these: read-out: Stability. For orientation: Liver microsomes are vesicles of endoplasmic reticulum, rich in cytochrome P450 enzymes.
Data set [2] deals with Kelch-like ECH-associated protein 1 (Homo sapiens, UniProt Q14145). Briefly: Inhibition of FITC-LDEETGEFL-NH2 binding to recombinant human Keap1 Kelch domain (321 to 609 residues) expressed in Escherichia Coli BL21(DE3)pLysS cells centrifuged for 2 mins followed by 30 mins incubation under shaking condition by fluorescence polarization assay. (In general: In fluorescence polarisation assays a small probe gives low polarisation when free and higher when bound to something large.)
Sequence of Kelch-like ECH-associated protein 1 (Q14145 whole entry, the tested form may be a part): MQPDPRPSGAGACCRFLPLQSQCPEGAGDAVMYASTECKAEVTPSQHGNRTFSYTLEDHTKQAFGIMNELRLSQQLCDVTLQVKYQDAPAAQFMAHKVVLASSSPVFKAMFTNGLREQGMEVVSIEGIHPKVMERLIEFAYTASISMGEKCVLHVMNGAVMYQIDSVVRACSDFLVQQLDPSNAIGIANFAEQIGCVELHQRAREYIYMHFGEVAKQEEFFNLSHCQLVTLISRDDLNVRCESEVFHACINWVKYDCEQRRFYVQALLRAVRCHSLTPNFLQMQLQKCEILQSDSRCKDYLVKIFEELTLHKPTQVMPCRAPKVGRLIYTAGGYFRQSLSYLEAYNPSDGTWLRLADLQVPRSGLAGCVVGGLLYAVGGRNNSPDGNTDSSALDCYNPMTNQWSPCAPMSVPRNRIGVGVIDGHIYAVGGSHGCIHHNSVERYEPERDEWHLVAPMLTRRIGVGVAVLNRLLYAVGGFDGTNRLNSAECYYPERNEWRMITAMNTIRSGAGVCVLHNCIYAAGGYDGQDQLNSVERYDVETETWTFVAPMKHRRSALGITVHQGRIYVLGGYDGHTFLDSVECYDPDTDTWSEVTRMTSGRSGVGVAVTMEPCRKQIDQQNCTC

Consider `COc1ccc(S(=O)(=O)N(CC(=O)O)c2ccc(N(CC(=O)O)S(=O)(=O)c3ccc(OC)cc3)c3ccccc23)cc1`, for which the remaining at 1.5 h, 100 µM in data set [1] was 56.9%.

A word on the IC50: it is the concentration that gives 50% inhibition. As for `COc1ccc(S(=O)(=O)N(CC(=O)O)Cc2ccccc2CN(CC(=O)O)S(=O)(=O)c2ccc(OC)cc2)cc1`, the remaining at 1.5 h, 100 µM in data set [1] worked out at 97.7%. Besides, the IC50 in data set [2] amounted to 2300 nM.

For the compound `COc1ccc(S(=O)(=O)N(Cc2ccccc2CN([C@@H](C)C(=O)O)S(=O)(=O)c2ccc(OC)cc2)[C@@H](C)C(=O)O)cc1`, the remaining at 1.5 h, 100 µM in data set [1] was 98.2%.
